Patent US6403831B1, “Substituted benzylidene indenyl formamides, acetamides and propionamides” (Cell Pathways, Inc., priority 1996, dated 2002)
Marks after values point to notes of the source that are not given here.

Tests used:
[1] = system: HT-29 human colon carcinoma cells; assay: Apoptosis by morphology (acridine orange/ethidium bromide, condensed chromatin); format: cell-based; settings: HT-29 cells
Experimental: Apoptosis was measured using an assay of cell death based on morphological characteristics of apoptotic cells (i.e., condensed chromatin). Drug preparation and cell culture conditions were the same as for the SRB assay described above, except that HT-29 human colon carcinoma cells were employed/Confluent cultures were established in 12.5 cm^2 flasks by plating 0.5×10^6 cells/flask. The cultures were assayed for apoptosis by fluorescent microscopy following labeling with acridine orange and ethidium bromide. Floating and attached cells were collected by trypsinization and washed three times in PBS. One ml aliquots were centrifuged (3 g). The pellet was resuspended in 25 μl media and 1 μl of a dye mixture containing 100 μg/ml acridine orange and 100 μg/ml ethidium bromide prepared in PBS and mixed gently. Ten μl of mixture was placed on a microscope slide and covered with a 22 mm^2 coverslip and examined under 40×dry objectives using epillumination and filter combination.
An observer blinded to the identity of the treatments scored at least 100 cells per sample. Apoptotic cells were identified by nuclear condensation of chromatin stained by the acridine orange or ethidium bromide.

[2] = target: T1, COX I (Ovis aries, UniProt P05979); assay: Cyclooxygenase (COX) inhibition, purified COX; format: biochemical; settings: purified COX from ram seminal vesicles; for COX I % Inhibition (100 μM): 100 μM test compound, arachidonic acid 100 μM; for COX I % Inhibition (values marked *): values marked *: 1000 μM test compound
T1 construct: The COX was purified form ram seminal vesicles; from tissue; host or cells: ram seminal vesicles
T1 sequence (P05979 25-600): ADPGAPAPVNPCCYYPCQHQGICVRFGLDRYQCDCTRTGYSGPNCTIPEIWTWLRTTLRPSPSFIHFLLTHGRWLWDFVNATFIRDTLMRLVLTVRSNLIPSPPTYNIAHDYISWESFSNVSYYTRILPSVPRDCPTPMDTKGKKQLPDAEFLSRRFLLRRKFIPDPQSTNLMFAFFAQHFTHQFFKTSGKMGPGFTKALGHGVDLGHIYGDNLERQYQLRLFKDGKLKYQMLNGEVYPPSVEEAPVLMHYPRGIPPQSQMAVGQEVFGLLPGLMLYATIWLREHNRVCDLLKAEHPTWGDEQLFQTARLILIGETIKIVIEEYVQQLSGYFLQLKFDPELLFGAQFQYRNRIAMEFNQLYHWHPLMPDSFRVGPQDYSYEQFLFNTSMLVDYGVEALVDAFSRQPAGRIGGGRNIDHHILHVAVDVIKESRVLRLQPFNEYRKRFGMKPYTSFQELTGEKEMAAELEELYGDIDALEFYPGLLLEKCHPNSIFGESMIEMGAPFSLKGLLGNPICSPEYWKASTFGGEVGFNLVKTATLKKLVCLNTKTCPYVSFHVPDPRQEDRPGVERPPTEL
Experimental: Compounds of this invention, as well as a positive control, sulindac sulfide were to determine whether they inhibited the production of cyclooxygenase (see Table 5 below).
COX catalyzes the formation of prostaglandins and thromboxane by the oxidative metabolism of arachidonic acid. The compounds of this invention were evaluated for inhibitory effects on purified COX. The COX was purified form ram seminal vesicles, as described by Boopathy, R. and Balasubramanian, J. 239:371-377, 1988. COX activity was assayed as described by Evans, A. T., et al., “Actions of cannabis constituents on enzymes of arachidonate metabolism anti-flammatory potential,” Biochem. Pharmacol., 36:2035-2037, 1987. Briefly, purified COX was incubated with arachidonic acid (100 μM) for 2.0 min at 37° C. in the presence or absence of test compounds. The assay was terminated buy the addition of TCA, and COX activity was determined by absorbance at 530 nm.

[3] = system: human colon carcinoma cell line, SW-480; assay: Growth inhibition, Sulforhodamine B (SRB) protein binding assay; format: cell-based; settings: SW-480 cell line, six days continuous exposure
Experimental: These compounds were assayed for their growth inhibitory activity on the human colon carcinoma cell line, SW-480 obtained from ATCC (Rockville, Md.), to ascertain the degree of growth inhibition. Growth inhibition of this cell line is indicative of a benefit on precancerous lesions and neoplasms. The cell line and growth assay employed for these experiments are well characterized, and are used to evaluate the anti-neoplastic properties of NSAIDs. The assay is used by the United States National Cancer Institute in its screening program for new anti-cancer drugs.
Drug stock solutions were made in 100% DMSO then diluted with RPMI media for cell culture testing. All drug solutions were prepared fresh on the day of testing. The cultured cells were obtained at passage #99 and grown in RPMI media supplemented with 5% fetal calf serum, and 2 mM glutamine, 100 U/ml penicillin, 100 U/ml streptomycin, and 0.25 μg/ml amphotericin. The cultures were maintained in a humidified atmosphere of 95% air and 5% CO2 at 37° C. The cultures were passaged at preconfluent densities using a solution of 0.05% trypsin and 0.53 mM EDTA. Cells were plated at 1000 cells/well for 96 well flat-bottom microtiter plates.
Tumor cell growth inhibition was assessed using the Sulforhodamine B (SRB) protein binding assay. In this assay, tumor cells were plated in 96-well plates and treated with drug-containing media for six days (continuous exposure). For each plate, 6 wells were designated as no treatment controls, six wells as vehicle (0.1% DMSO) controls, and the remaining wells for drug dilutions with three wells per drug concentration. At the end of the exposure period, the cells were fixed and stained with sulforhodamine B, a protein binding dye. The dye was then solubilized, and the optical density of the resulting solution was determined on a 96-well plate reader. The mean dye intensity of the treated wells was then divided by the mean dye intensity in the control wells (6 wells of each) to determine the effect of the drug on the cells. Dye intensity is proportional to the number of cells or amount of protein per well. The resultant “percent inhibition” value then represents the degree of growth inhibition caused by the drug.
For each experiment, an IC50 value was determined and used for comparative purposes. This value is equivalent to the concentration of drug needed to inhibit tumor cell growth by 50%. IC50 values were obtained graphically by connecting the mean values for each drug concentration tested. Each experiment included at least three wells per drug concentration. Concentration was plotted on a log scale on the X-axis.

[4] = system: SW-480 colon adenocarcinoma cells; assay: Apoptosis by DNA fragmentation (Cell Death Detection ELISA plus); format: cell-based, human; settings: SW-480 cells, 48 hrs; for EC50: by software or estimated from effective concentration range; for DNA Fragmentation FS (100 μM): fold stimulation FS=ODmax/ODveh
Experimental: Apoptosis was also measured based on the amount of fragmented DNA contained in cell lysates. Briefly, SW-480 colon adenocarcinoma cells were plated in 96-well microtitre plates (“MTP”) at a density of 10K cells/well in 180 μl and incubated for 24 hrs. Cells were then treated with 20 μl aliquots of appropriately diluted compound, and allowed to incubate for an additional 48 hrs.
After the incubation, samples were prepared according to the following steps. The MTP was centrifuged (15 min., 1000 rpm) and the supernatant was carefully removed by fast inversion of the MTP. The cell pellents in each well were then resuspended in ^200 μl lysis buffer and incubated for 45 min. at room temperature to lyse the cells. The lysates were then centrifuged (15 min., 1000 rpm) and 20 μl aliquots of the supernatant (=cytoplasmic fraction) were transferred into the streptavidin coated MTP for analysis. Care was taken not to shake the lysed pellets in the MTP (=cell nucleii containing high molecular weight, unfragmented DNA). Samples were analyzed immediately, because storage at 4 C or −20 C reduces the ELISA-signals.
Samples were then processed according to a DNA fragmentation assay protocol, and dose-response curves were generated based on optical density readings. Quantification of DNA was done by a commercially available photometric enzyme-immunoassay manufactured by Mannheim-Boehringer under the name “Cell Death Detection ELISA^plus”. The assay is based on a quantitative sandwich-enzyme-immunoassay-principle using mouse monoclonal antibodies directed against DNA and histones, respectively. This allows the specific determination of mono and oligonucleosomes in the cytoplasmatic fraction of cell lysates. In brief, the assay procedure is as follows. The sample (cell-lysate, serum, culture-supernatant etc.) is placed into a streptavidin-coated MTP. Subsequently, a mixture of anti-histone-biotin and anti-DNA-POD are added and incubated for 2 hours. During the incubation period, the anti-histone antibody binds to the histone-component of the nucleosomes and simultaneously fixes the immunocomplex to the streptavidin-coated MTP via its biotinylation. Additionally, the anti-DNA-POD antibody reacts with the DNA component of the nucleosomes. After removal of unbound antibodies by a washing step, the amount of nucleosomes is quantified by the POD retained in the immunocomplex. POD is determined photometrically with ABTS® (2,2′-Azino-di[3-ethylbenzthiazolin-sulfonat])* as substrate.
Fold stimulation (FS=ODmax/ODveh), an indicator of apoptotic response, was determined for each compound tested. EC50 values were determined either specifically by data analysis software, or by estimates based on the effective concentration range of each compound (ECR=min. effective dose-min. dose to peak effect). These FS and EC50 values for the tested compounds are listed above in Table 6.

Compound	Morphology % Apoptotic Cells (1 μM) [1] [%]	COX I % Inhibition (100 μM) [2] [%]	IC50 [3] [µM]	EC50 [4] [µM]	DNA Fragmentation FS (100 μM) [4]	COX I % Inhibition (values marked *) [2]
COc1cc(OC)c(OC)cc1/C=C1/C(C)=C(CC(=O)NCc2ccccc2)c2cc(F)ccc21 [Example 58, (Z)-5-fluoro-2-methyl-1-(2,4,5-trimethoxybenzylidene)-3-(N-benzyl)-indenylacetamide]	52	<25	0.98	0.7	2.5	–
COc1cc(/C=C2/C(C)=C(CC(=O)NCCc3ccccc3)c3cc(F)ccc32)cc(OC)c1OC [Example 39, (Z)-5-fluoro-2-methyl-1-(3,4,5-trimethoxybenzylidene)-3-(N-2-phenylethyl)-indenylacetamide]	31	–	> 10	> 10	2	59* %
COc1cc(/C=C2/C(C)=C(CC(=O)NCCCCc3ccccc3)c3cc(F)ccc32)cc(OC)c1OC [Example 41, (Z)-5-fluoro-2-methyl-1-(3,4,5-trimethoxybenzylidene)-3-(N-4-phenylbutyl)-indenylacetamide]	30	–	> 10	> 10	<2	59* %
COc1ccc(CN(C(=O)CC2=C(C)/C(=C/c3cc(OC)c(OC)c(OC)c3)c3ccc(F)cc32)c2ccccn2)cc1 [Example 35, (Z)-5-fluoro-2-methyl-1-(3,4,5-trimethoxybenzylidene)-3-(N-4-methoxybenzyl-N-(2-pyridinyl))-indenylacetamide]	40	–	> 10	> 10	<2	37* %
COc1cc(/C=C2/C(C)=C(CC(=O)N[C@@H](C)c3ccccc3)c3cc(F)ccc32)cc(OC)c1OC [Example 43, (Z)-5-fluoro-2-methyl-1-(3,4,5-trimethoxybenzylidene)-3-(N-(S)-1-phenylethyl)-indenylacetamide]	25	–	> 10	> 10	<2	36* %
COc1cc(/C=C2/C(C)=C(CC(=O)NCc3ccccc3Cl)c3cc(F)ccc32)cc(OC)c1OC [Example 4, (Z)-5-fluoro-2-methyl-1-(3,4,5-trimethoxybenzylidene)-3-(N-2-chlorobenzyl)-indenylacetamide]	68	<25	0.36	0.25	2.4	–
COc1cc(/C=C2/C(C)=C(CC(=O)N(Cc3ccccc3)c3ccccn3)c3cc(F)ccc32)cc(OC)c1OC [Example 38, (Z)-5-fluoro-2-methyl-1-(3,4,5-trimethoxybenzylidene)-3-(N-benzyl-N-(2-pyridinyl))-indenylacetamide]	20	–	> 10	> 10	<2	35* %
COc1cc(/C=C2/C(C)=C(CC(=O)NCc3ccccc3Br)c3cc(F)ccc32)cc(OC)c1OC [Example 33, (Z)-5-fluoro-2-methyl-1-(3,4,5-trimethoxybenzylidene)-3-(N-2-bromobenzyl)-indenylacetamide]	28	–	1.8	4	3.7	49* %
COc1cc(/C=C2/C(C)=C(CC(=O)Nc3ccc(Br)cc3)c3cc(F)ccc32)cc(OC)c1OC [Example 23, (Z)-5-fluoro-2-methyl-1-(3,4,5-trimethoxybenzylidene)-3-(N-4-bromophenyl)-indenylacetamide]	–	<25	8	–	–	–
COc1cc(OC)c(/C=C2/C(C)=C(CC(=O)NCc3ccccc3)c3cc(F)ccc32)c(OC)c1 [Example 55, (Z)-5-fluoro-2-methyl-1-(2,4,6-trimethoxybenzylidene)-3-(N-benzyl)-indenylacetamide]	–	<25	0.5	–	–	–
